Assay results from ChEMBL document CHEMBL5550154, “Novel biaryloxazolidinone derivatives with broad-spectrum antibacterial activity, favorable drug-like profiles and in vivo efficacy against linezolid-resistant Staphylococcusaureus” (Eur J Med Chem, 2024).
pIC50: −log10 of the molar value. Converted amounts (≈) assume the structure as drawn.

Experiments:
[1] = Apparent volume of distribution in Sprague-Dawley rat at 1 mg/kg, iv measured upto 24 hrs by LC-MS analysis; type: ADME, organism-based; conditions: in vivo, read-out: Vz
[2] = tested on: Staphylococcus aureus; assay: Antibacterial activity against linezolid-resistant Staphylococcus aureus assessed as inhibition of bacterial growth incubated for 16 to 20 hrs by CLSI based broth liquid microdilution method; type: functional; conditions: time 16-20 hrs
[3] = tested on: Staphylococcus aureus; assay: Antibacterial activity against Staphylococcus aureus ATCC29213 assessed as inhibition of bacterial growth incubated for 16 to 20 hrs by CLSI based broth liquid microdilution method; type: functional; conditions: time 16-20 hrs
[4] = Plasma protein binding in dog incubated for 6 hrs by LC-MS/MS analysis; type: ADME, cell-free, Canis lupus familiaris; conditions: read-out: PPB (converted)
[5] = Cytotoxicity against human HepG2 cells incubated for 48 hrs by MTT assay; type: toxicity, cell-based
[6] = Stability in mouse plasma assessed as parent compound remaining at 37 degreeC measured upto 60 mins by HPLC analysis; type: ADME, cell-free; conditions: read-out: Stability
[7] = AUC (0 to t) in Sprague-Dawley rat at 10 mg/kg, IG measured upto 24 hrs by LC-MS analysis; type: ADME, organism-based; conditions: in vivo, po
[8] = Cmax in ICR mouse at 10 mg/kg, IG measured upto 24 hrs by LC-MS analysis; type: ADME, organism-based; conditions: in vivo, po
[9] = Efflux ratio of apparent permeability across […] side in human Caco-2 cells; type: ADME, cell-based
[10] = Stability in rat plasma assessed as parent compound remaining at 25 degreeC measured upto 60 mins by HPLC analysis; type: ADME, cell-free
[11] = Stability in human plasma assessed as parent compound remaining at 37 degreeC measured upto 60 mins by HPLC analysis; type: ADME, cell-free; conditions: read-out: Stability
[12] = Plasma protein binding in human incubated for 6 hrs by LC-MS/MS analysis; type: ADME, cell-free; conditions: read-out: PPB (converted)
[13] = Stability in dog plasma assessed as parent compound remaining at 37 degreeC measured upto 60 mins by HPLC analysis; type: ADME, cell-free, Canis lupus familiaris; conditions: read-out: Stability
[14] = tested on: Staphylococcus aureus; assay: Antibacterial activity against methicillin-sensitive Staphylococcus aureus assessed as inhibition of bacterial growth incubated for 16 to 20 hrs by CLSI based broth liquid microdilution method; type: functional; conditions: time 16-20 hrs
[15] = tested on: Staphylococcus aureus; assay: Antibacterial activity against methicillin-resistant Staphylococcus aureus assessed as inhibition of bacterial growth incubated for 16 to 20 hrs by CLSI based broth liquid microdilution method; type: functional; conditions: time 16-20 hrs
[16] = Plasma protein binding in monkey incubated for 6 hrs by LC-MS/MS analysis; type: ADME, cell-free, Macaca mulatta; conditions: rhesus monkey, read-out: PPB (converted)
[17] = Microsomal stability in monkey liver microsomes assessed as intrinsic clearance pretreated with compound upto 60 mins followed by NADPH addition and measured after 60 mins by LC/MS analysis; type: ADME, Macaca mulatta, Microsome; conditions: rhesus monkey, time < 120 min, read-out: CLH
[18] = Microsomal stability in mouse liver microsomes assessed as elimination half life pretreated with compound upto 60 mins followed by NADPH addition and measured after 60 mins by LC/MS analysis; type: ADME, Microsome; conditions: time < 120 min
[19] = Clearance in ICR mouse at 1 mg/kg, iv measured upto 24 hrs by LC-MS analysis; type: ADME, organism-based; conditions: in vivo
[20] = target: Cytochrome P450 2D6 (Homo sapiens, UniProt P10635); assay: Inhibition of CYP2D6 in human liver microsomes […] preincubated with compound for 5 mins followed by substrate addition and measured after 120 mins in presence of NADPH by LC-MS/MS analysis; type: ADME, Microsome
[21] = Aqueous solubility of compound at pH 2 by LC-MS/MS analysis; type: physicochemical; conditions: buffer
[22] = Microsomal stability in rat liver microsomes assessed as elimination half life pretreated with compound upto 60 mins followed by NADPH addition and measured after 60 mins by LC/MS analysis; type: ADME, Microsome
[23] = Tmax in ICR mouse at 10 mg/kg, IG measured upto 24 hrs by LC-MS analysis; type: ADME, organism-based; conditions: in vivo, po
[24] = Microsomal stability in dog liver microsomes assessed as parent compound remaining pretreated with compound upto 60 mins followed by NADPH addition and measured after 60 mins by LC/MS analysis; type: ADME, Canis lupus familiaris, Microsome; conditions: time < 120 min, read-out: Stability
[25] = Apparent permeability across apical to basolateral side in human Caco-2 cells; type: ADME, cell-based
[26] = Stability in human plasma assessed as parent compound remaining at 25 degreeC measured upto 60 mins by HPLC analysis; type: ADME, cell-free
[27] = Microsomal stability in dog liver microsomes assessed as intrinsic clearance pretreated with compound upto 60 mins followed by NADPH addition and measured after 60 mins by LC/MS analysis; type: ADME, Canis lupus familiaris, Microsome; conditions: liver microsomes, time < 120 min, read-out: CLH
[28] = Half life in ICR mouse at 1 mg/kg, iv measured upto 24 hrs by LC-MS analysis; type: ADME, organism-based; conditions: in vivo
[29] = Plasma protein binding in rat incubated for 6 hrs by LC-MS/MS analysis; type: ADME, cell-free; conditions: read-out: PPB (converted)
[30] = Microsomal stability in human liver microsomes assessed as parent compound remaining pretreated with compound upto 60 mins followed by NADPH addition and measured after 60 mins by LC/MS analysis; type: ADME, Microsome; conditions: time < 120 min
[31] = Stability in simulated gastric acid assessed as compound remaining at pH 1.3 measured immediately; type: ADME; conditions: read-out: Stability
[32] = liver microsomes, read-out: beta t1/2

Chain of Cytochrome P450 2D6 (P10635 whole entry): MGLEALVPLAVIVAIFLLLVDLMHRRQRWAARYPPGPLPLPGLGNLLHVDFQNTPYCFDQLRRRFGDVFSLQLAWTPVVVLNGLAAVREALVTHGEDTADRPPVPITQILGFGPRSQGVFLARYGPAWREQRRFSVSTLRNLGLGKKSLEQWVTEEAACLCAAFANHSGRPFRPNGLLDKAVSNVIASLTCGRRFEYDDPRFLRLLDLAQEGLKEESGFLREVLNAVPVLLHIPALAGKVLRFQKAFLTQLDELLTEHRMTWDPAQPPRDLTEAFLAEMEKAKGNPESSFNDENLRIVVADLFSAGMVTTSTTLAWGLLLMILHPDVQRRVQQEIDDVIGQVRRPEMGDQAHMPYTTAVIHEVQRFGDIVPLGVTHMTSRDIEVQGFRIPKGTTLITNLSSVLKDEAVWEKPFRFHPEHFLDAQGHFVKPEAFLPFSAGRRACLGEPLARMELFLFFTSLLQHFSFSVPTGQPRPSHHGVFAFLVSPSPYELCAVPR

Structure (SMILES) | Vd [1] | MIC [2] | MIC [3] | fraction unbound at 6 h [4] | IC50 at 48 h [5] | remaining at 1 h [6] | AUC(0-t) at 24 h [7] | Cmax [8] | remaining at 1 h [11] | fraction unbound at 6 h [12] | remaining at 1 h [13] | MIC [14] | MIC [15] | fraction unbound at 6 h [16] | microsomal CLint [17] | clearance [19] | pIC50 [20] | solubility [21] | Tmax [23] | remaining at 2 h [24] | other results
O=C1O[C@@H](CO)CN1c1ccc(-c2ccc(/C=N/N3CCCCC3)nc2)c(F)c1 | 1.06 L/kg | 0.03 µg/mL (≈ 0.0753 µM) | 0.03 µg/mL (≈ 0.0753 µM) | 0.017 | > 30 µM | 111% | 7170 ng·h/mL | 817 ng/mL | 118% | 0.013 | 100% | 0.03 µg/mL (≈ 0.0753 µM) | 0.03 µg/mL (≈ 0.0753 µM) | 0.028 | 17.2 µL/min/mg | 13.9 mL/min/kg | < 4.52 | 58.4 µM (≈ 23.3 µg/mL) | 2 h | 67.4% | Ratio [9]: 1.5; Stability ([10]; 1 h): 124%; half-life [18, 32]: 2.5 h; half-life [22, 32]: 1.61 h; Papp A→B [25]: 11.1 ×10⁻⁶ cm/s; Stability ([26]; 1 h): 149%; microsomal CLint [27]: 13.1 µL/min/mg; half-life [28]: 1.54 h; fraction unbound at 6 h [29]: 0.006; Stability ([30]; microsomes, 2 h): 71.7%
CC(C)N/N=C/c1ccc(-c2ccc(N3C[C@H](CO)OC3=O)cc2F)cn1 | 0.72 L/kg | 0.03 µg/mL (≈ 0.0806 µM) | 0.06 µg/mL (≈ 0.161 µM) | 0.074 | > 30 µM | 80.2% | 10100 ng·h/mL | 479 ng/mL | 107% | 0.074 | 108% | 0.03 µg/mL (≈ 0.0806 µM) | 0.03 µg/mL (≈ 0.0806 µM) | 0.115 | 13.7 µL/min/mg | 34.9 mL/min/kg | < 4.52 | 56.4 µM (≈ 21 µg/mL) | 0.25 h | 76.7% | remaining at 0 h [31]: 100%; remaining at 1 h ([10]; read-out: Stability): 111%; beta t1/2 ([18]; microsomes, 2 h): 1.26 h; beta t1/2 ([22]; microsomes, 1 h): 1.87 h; remaining at 1 h ([26]; read-out: Stability): 112%; microsomal CLint [27]: 8.78 µL/min/mg; half-life [28]: 0.34 h; fraction unbound at 6 h [29]: 0.018; remaining at 2 h ([30]; liver microsomes, read-out: Stability): 85.8%
